Paper PMC9785144, “Metal Coordination and Biological Screening of a Schiff Base Derived from 8-Hydroxyquinoline and Benzothiazole” (Pharmaceutics, 2022)
Like-named read-outs stand apart in the source and are kept apart here. Blank lines part the entries; values can stand above or below the molecule they belong to.

Assays:
[1] = UV-vis spectrophotometric titration for proton dissociation constants; type: physicochemical; settings: for pKa: 60% (v/v) DMSO/H2O solvent mixture, 60% (v/v) DMSO/H2O, I = 0.10 M (KCl), 25 °C
Experimental: The pH-potentiometric titrations for the calibration of the electrode system were performed in 30% (v/v) and 60% (v/v) DMSO/H2O solvent mixtures using 0.10 M KCl background electrolyte at 25.0 ± 0.1 °C as described in our previous works.
A Thermo Evolution 220 spectrophotometer was used to record the UV-visible (UV-vis) spectra in the 260 to 750 nm window. The path length was varied between 2 and 50 mm. As a result of the limited solubility of the compounds in water, the spectrophotometric titrations were performed to determine the proton dissociation constants (pKa) of the ligand and its complex at 5 μM concentration using 5 cm path length. Due to the light sensitivity of the studied compounds, the samples were covered and were kept in the dark during the titrations. The starting sample volume was 50 mL. These titrations were performed in the pH range 2.0–12.5 (30% (v/v) DMSO/H2O) and 2.0–14.0 (60% (v/v) DMSO/H2O). Samples were deoxygenated by bubbling purified argon through them for approximately 10 min prior to the measurements and argon was also passed over the solutions during the spectrophotometric titrations. Calculation of the proton dissociation constants was performed with the computer program PSEQUAD [28].
Titrations were performed first in 30% (v/v) DMSO/H2O mixture due to the limited water solubility of the ligand. The sample was protected from light and, for a given portion of the sample, the UV-vis spectrum was recorded only once. […] Following this experiment, the titration was repeated in 60% (v/v) DMSO/H2O mixture (Figure 7), and no precipitation was found in the whole pH range (1.73−13.67) under this condition. However, only three deprotonation steps were observed, most probably because one of the deprotonation steps was already completed at the starting pH.
To elucidate the pKa assignment, 2-hydrazinobenzothiazole (considered as a fragment of the title ligand) was titrated under similar conditions to monitor the spectral changes during the deprotonation of the benzothiazole moiety.

[2] = system: HCT-116, A375, CT-26, B16F10 and HaCaT cell lines; experiment: Preliminary MTT antiproliferative screening on cell line panel; settings: 20 and 40 μM, 48 h
Experimental: The MTT [32] and Guava ViaCount assays [33, 34] were used to assess cell viability in the absence (negative control) or presence of increasing concentrations of [Ni(HL)(acetate)], [Ru(HL)Cl(DMSO)] and 5-FU (positive control). Briefly, cells were plated at a concentration of 5 × 10^4 cells/mL in 96-well plates (200 μL/well) and cultured for 24 h in the culture conditions described above. Afterwards, supernatant was removed, and cells were incubated with [Ni(HL)(acetate)] and [Ru(HL)Cl(DMSO)] at concentrations ranging from 0.5 to 40 μM or from 0.5 to 100 μM for the 5-FU (positive control). Negative controls were cells maintained in complete culture medium. After 48 h, culture medium was discarded, cells were washed twice with PBS and 50 μL of MTT at 0.5 mg/mL in incomplete medium was added to all wells. After a 2 to 3 h incubation period at 37 °C and 5% CO2 environment, 100 μL DMSO was added to each well to solubilise the formazan crystals, and absorbance was measured at 570 nm using a microplate reader Model 680 (Bio-Rad, CA, USA). Between three to four independent experiments were carried out, with six replicates per condition. GraphPad Prism®8 (GraphPad Software, San Diego, CA, USA) was used to analyse cell proliferation and values were plotted and fit to a standard log dose-response curve. The IC50 values were calculated using Equation (2) [35]:log IC50 = log X1 + {[(Y1 − (Y0)/2)]/(Y1 − Y2)} × (log X2 − log X1)(2) where, Y0/2 is the half-cell density of the negative control; Y1 is the cell density above Y0/2; X1 is the concentration corresponding to Y1; Y2 is the cell density below Y0/2; X2 is the concentration corresponding to Y2. The IC50 was determined by linear interpolation between X1 and X2.
Thus, to evaluate the antiproliferative properties of the newly synthetised metal complexes, a preliminary screening was performed using human (HCT-116 and A375) and murine (CT-26 and B16F10) colon cancer and melanoma cell lines, respectively. […]

[3] = Shake-flask n-octanol/buffer distribution coefficient (D7.4); type: physicochemical; settings: n-octanol/buffered aqueous solution, 25 °C, read-out: logD7.4
Experimental: The distribution coefficient values (D7.4) of the compounds were determined by the traditional shake-flask method in n-octanol/buffered aqueous solution at pH 7.40 (10 mM HEPES buffer, in the absence or in the presence of 0.10 M KCl) at 25.0 ± 0.2 °C. The samples and stock solutions were protected from light until the spectrophotometric concentration determination. The ligand and complex were dissolved at 150 and 100 μM concentrations in n-octanol, respectively. n-Octanol was presaturated with the HEPES solution with the given KCl concentration. The aqueous solution and n-octanol ratio was 9:1 (instead of the usual 1:1 ratio due to the high lipophilicity of the compounds). […] After separation, UV-vis spectra of the compounds in the n-octanol phase were recorded and compared to the spectra of the n-octanol stock solution. D7.4 values were calculated as in the following Equation (1): (1) D7.4=Aoct,1/Aoct,0−Aoct,1×Vwater phase/Voctanol phase where Aoct,0 and Aoct,1 are the absorbance values of the n-octanol phase before and after separation, respectively, Vwater phase and Voctanol phase are the volumes of the two phases.
The distribution coefficients (D7.4) for H2L and the Ru-complex (as model complex) were determined using HEPES buffer (pH = 7.4) for the aqueous phase. Distribution was measured in the absence and presence of 100 mM KCl. […]

[4] = system: CT-26 colon cancer cells; experiment: MTT antiproliferative assay, CT-26; type: cell-based, murine; settings: CT-26, MTT, 48 h incubation
Experimental: (§1) Murine colon cancer CT-26 (ATCC® CRL-263™) cells were cultured in RPMI-1640, supplemented with 10% foetal bovine serum (FBS) and 100 IU/mL of penicillin and 100 μg/mL streptomycin (Gibco, Thermo Fisher Scientific, Waltham, MA, USA), hereafter designated as complete culture medium. Human colon cancer HCT-116 (ATCC® CCL-247™), human melanoma A375 (ATCC® CCL-1619™), murine melanoma B16F10 (ATCC® CCL-6475™) cells and human epidermal keratinocytes (HaCaT) were maintained in Dulbecco’s modified Eagle’s medium (DMEM) with high-glucose (4500 mg/L) (Sigma-Aldrich, St. Louis, MO, USA), supplemented with 10% FBS and 100 IU/mL of penicillin and 100 μg/mL streptomycin (Gibco, Thermo Fisher Scientific, Waltham, MA, USA), also designated as complete culture medium. The cell lines were maintained at 37 °C in a 5% CO2 environment and cells were trypsinised every 2–3 days when 80% confluence was reached.
(§2) Negative controls were cells maintained in complete culture medium.

[5] = system: HCT-116 colon cancer cells; experiment: MTT antiproliferative assay, HCT-116; type: cell-based, human; settings: HCT-116, MTT, 48 h incubation
Experimental: as §1, §2

[6] = Light sensitivity in DMSO (UV-vis); type: physicochemical
Experimental: For the light sensitivity studies, DMSO solutions were prepared. The starting sample was separated equally for more portions, one was irradiated with diffuse light, while other portions were stored in the dark and measured only once.
The light sensitivity of H2L and its Ru-complex (as model metal compound) were tested by UV-vis spectrophotometry to further understand their behaviour. Samples were dissolved in DMSO and stored in the dark, while one portion was irradiated continuously by diffuse light. […] A relatively fast change is observed for the ligand in the first 1.5 h, and after that the spectrum has only minor changes (Figure 4A). […] Figure S16 depicts the spectral changes visible in Figure 4B. […] In the ligand, this may be due to a photoisomerisation process of the imine bond (Z/E isomers), which is quite common in hydrazones), but not in the Ru-complex, unless what is being observed in the complex solution is due to unbound ligand molecules.

[7] = target: bovine serum albumin (BSA) (Bos taurus, UniProt P02769); experiment: Albumin binding by fluorescence quenching and circular dichroism; settings: BSA ca. 20–25 μM, bands centred at ca. 360 nm, compound 5 to 70 μM
Sequence of bovine serum albumin (BSA) (P02769 25-607): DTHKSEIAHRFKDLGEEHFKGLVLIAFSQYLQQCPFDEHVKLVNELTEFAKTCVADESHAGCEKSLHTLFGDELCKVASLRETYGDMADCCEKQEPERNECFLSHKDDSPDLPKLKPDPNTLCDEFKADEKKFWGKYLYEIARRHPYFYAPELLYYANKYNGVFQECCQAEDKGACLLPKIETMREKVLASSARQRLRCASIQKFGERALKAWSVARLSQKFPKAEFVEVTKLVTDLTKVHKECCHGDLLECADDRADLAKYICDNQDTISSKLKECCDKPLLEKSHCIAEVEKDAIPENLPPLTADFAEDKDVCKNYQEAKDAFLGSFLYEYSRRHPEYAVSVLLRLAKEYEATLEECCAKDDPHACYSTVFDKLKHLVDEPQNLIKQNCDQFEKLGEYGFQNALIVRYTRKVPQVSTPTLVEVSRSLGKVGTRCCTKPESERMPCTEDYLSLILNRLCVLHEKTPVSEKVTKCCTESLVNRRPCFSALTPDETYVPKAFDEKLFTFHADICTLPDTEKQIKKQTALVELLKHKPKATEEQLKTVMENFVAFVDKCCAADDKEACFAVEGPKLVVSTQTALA
Experimental: The concentration of BSA in the experiments was ca. 1.5 μM (in aqueous PBS). The fluorescence emission spectra were recorded between 310 and 575 nm, with λex = 295 nm. Successive additions of the complexes were done directly to the cuvette (optical path 1 cm) and the fluorescence emission spectra were recorded for each one under the same conditions. Blank assays for each sample, consisting in solutions with the same concentration of complex and no BSA, were recorded and subtracted to the corresponding emission spectra containing the fluorophore. The UV-vis spectra of the sample solutions were used to correct the emission spectra, minimizing inner filter and reabsorption phenomena interference.
The concentration of BSA in the experiments was ca. 20–25 μM (in aqueous PBS). The circular dichroism (CD) spectra are an average of three scan accumulations, recorded between 300 and 500 nm, with bandwidth of 1 nm and response of 2 s, using a scanning speed of 100 nm/min. Successive additions of the complexes stock solutions in DMSO were done directly to the cuvette (1 cm) and the CD spectra were recorded under the same conditions after 10 min equilibration. Induced CD spectra were obtained as the CD spectrum of compound-BSA mixture minus the CD spectrum of BSA alone and are expressed as ellipticity in millidegrees.

[8] = system: CT-26 cells; experiment: Cell cycle analysis by PI flow cytometry, CT-26; type: cell-based, murine; settings: CT-26, 24 h, sub-toxic concentrations
Experimental: (§3) To understand the potential effects of [Ni(HL)(acetate)] and [Ru(HL)Cl(DMSO)] on cell cycle progression, CT-26 and HCT-116 cells were used. Briefly, cells were plated at a density of 5 × 10^4 cells/mL in 6-well plates (2 mL) and allowed to grow for 24 h at 37 °C with 5% CO2. CT-26 cells were then incubated with [Ni(HL)(acetate)] or [Ru(HL)Cl(DMSO)] at concentrations of 5 and 10 μM or 10 and 20 μM, respectively. For HCT-116 cell line, the tested concentrations were 5 and 7.5 μM, and 7.5 and 12.5 μM for [Ni(HL)(acetate)] and [Ru(HL)Cl(DMSO)], respectively. The positive control group, 5-FU, was tested at 0.5 and 2 μM and 20 and 40 μM for CT-26 and HCT-116, respectively. Negative control group was constituted by cells in the presence of complete culture medium. After a 24 h incubation period, cells were collected by centrifugation at 850× g for 5 min at 4 °C, suspended in 500 µL of ice-cold PBS, and fixed with 500 µL ice-cold 80% ethanol (−20 °C), added drop-by-drop, under gentle mixing. Prior to the analysis, samples were kept at 4 °C for at least 16 h. […] The ModFit LT™ 5.0 software was used to analyse the data and the percentages of cells in each cell cycle phase was determined (Verity Software House, Topsham, ME, USA).

[9] = system: HCT-116 cells; experiment: Cell cycle analysis by PI flow cytometry, HCT-116; type: cell-based, human; settings: HCT-116, 24 h, sub-toxic concentrations
Experimental: as §3

[10] = system: HCT-116 cells; experiment: Wound-healing migration assay, HCT-116; type: cell-based, human; settings: HCT-116, 12.5 μM, at 22 h (control 50%)
Experimental: To assess cellular migration in the presence or absence of tested compounds, HCT-116 and CT-26 cells were plated at 1.5 × 10^5 and 3 × 10^5 cells/mL in a 12-well plate (1 mL/well) and were allowed to adhere and grow until reaching around 80–90% confluence. A sterile 10 μL pipette tip was used to wound the cell monolayer, followed by a washing step with PBS to remove debris. Then, cells were incubated with the tested compounds suspended in RPMI-1640 (CT-26) or DMEM media (HCT-116) supplemented with 2% FBS and 100 IU/mL of penicillin and 100 μg/mL streptomycin (Gibco, Thermo Fisher Scientific, Waltham, MA, USA), and hereafter designated as RPMI 2% and DMEM 2%, respectively. Under the above mentioned culture conditions, CT-26 cells were incubated with [Ni(HL)(acetate)] or [Ru(HL)Cl(DMSO)] at concentrations of 10 and 15 μM, respectively. […] The positive control, 5-FU, was tested at 1.5 and 40 μM for CT-26 and HCT-116, respectively. Negative control group was constituted by cells maintained in RPMI 2% (CT-26) and DMEM 2% (HCT-116). Images of the wound closure were taken beneath the stage of a Zeiss Axiovert 200 inverted microscope, using a 10× objective and a digital camera (CoolSNAP EZ, Photometrics, Huntington Beach, CA, USA) and recorded by the Metafluor Software at 0, 2, 4, 8, 18, 20 and 22 h following cell monolayer scratching (Molecular Devices, Sunnyvale, CA, USA). […]

pKa ([1]; read-out: pKa2): 3.35 ± 0.03 | pKa ([1]; read-out: pKa3): 10.35 ± 0.03 | pKa ([1]; read-out: pKa4): 12.86 ± 0.03
SMILES: NNc1nc2ccccc2s1 [2-Hydrazinobenzothiazole, 2-hydrazinobenzothiazole, reference compound]
antiproliferative / cytotoxic effect in preliminary screening [2]: no effect

logD at 4 h ([3]; pH 7.4, n-octanol/10 mM HEPES pH 7.4, 0 mM KCl): 2.8 | logD at 4 h ([3]; pH 7.4, n-octanol/10 mM HEPES pH 7.4, 100 mM KCl): 3 | pH range of precipitation ([1]; 30% (v/v) DMSO/H2O, 5 μM): 3.8−11.0 | pKa ([1]; read-out: pKa2): 1.99 ± 0.03 | pKa ([1]; read-out: pKa3): 9.09 ± 0.04 | pKa ([1]; read-out: pKa4): 12.99 ± 0.04 | IC50 ([4]; Mus musculus, CT26): 1.8 ± 0.4 µM | IC50 ([5]; Homo sapiens): 3 ± 0.8 µM | light sensitivity ([6]; irradiated continuously by diffuse light): strong light sensitivity | spectral changes in the dark ([6]; stored in the dark, 4 days of monitoring): only a small change | induced CD bands with BSA [7]: high intensity induced CD bands
SMILES: Oc1cccc2ccc(/C=N/Nc3nc4ccccc4s3)nc12 [H2L, (E)-2-((2-(benzo[d]thiazol-2-yl)Hydrazono)Methyl)Quinolin-8-ol]
antiproliferative / cytotoxic effect in preliminary screening [2]: high cytotoxicity

SMILES: O=Cc1ccc2cccc(O)c2n1 [HQ2CHO, 2-carbaldehyde-8-hydroxyquinoline]
antiproliferative / cytotoxic effect in preliminary screening [2]: cytotoxicity against the human melanoma and colon cancer cell lines

IC50 [4]: 11 ± 2.3 µM | IC50 [5]: 8.6 ± 2 µM | induced CD bands with BSA [7]: high intensity induced CD bands
SMILES: CC(=O)[O][Ni][O]c1cccc2ccc(C=NNc3nc4ccccc4s3)nc12 [[Ni(HL)(acetate)]]
cell cycle arrest [8]: arrested cell cycle at S phase | cell cycle arrest [9]: no such effect | maximum wound closure [10]: 32%
